Laboratory results taken from US10208047B2, “Tertiary alcohol imidazopyrazine BTK inhibitors” (Merck Sharp & Dohme Corp., priority 2014, dated 2019).

Biological target: BTK enzyme (recombinant full-length BTK, hBTK) (Homo sapiens (Human), UniProt Q06187)
Assay: Btk enzyme activity assay, LANCE TR-FRET
Type: biochemical
Conditions: 50 pM hBTK, 2 μM biotin-A5-peptide, 25 μM ATP, 60 minute compound & enzyme incubation, compound range 1 μM to 0.017 nM, read-out: BTK binding IC50
Experimental: Btk Enzyme Activity Assay Methods
BTK enzymatic activity was determined with the LANCE (Lanthanide Chelate Excite) TR-FRET (Time-resolved fluorescence resonance energy transfer) assay. In this assay, the potency (IC50) of each compound was determined from an eleven point (1:3 serial dilution; final compound concentration range in assay from 1 μM to 0.017 nM) titration curve using the following outlined procedure. To each well of a black non-binding surface Corning 384-well microplate (Corning Catalog #3820), 5 nL of compound (2000 fold dilution in final assay volume of 10 μL) was dispensed, followed by the addition of 7.5 μL of 1× kinase buffer (50 mM Hepes 7.5, 10 mM MgCl2, 0.01% Brij-35, 1 mM EGTA, 0.05% BSA & 1 mM DTT) containing 5.09 pg/μL (66.67 pM) of BTK enzyme (recombinant protein from baculovirus-transfected Sf9 cells: full-length BTK, 6HIS-tag cleaved). Following a 60 minute compound & enzyme incubation, each reaction was initiated by the addition of 2.5 μL 1× kinase buffer containing 8 μM biotinylated “A5” peptide (Biotin-EQEDEPEGDYFEWLE-NH2) (SEQ.ID.NO.: 1), and 100 μM ATP. The final reaction in each well of 10 μL consists of 50 pM hBTK, 2 μM biotin-A5-peptide, and 25 μM ATP. Phosphorylation reactions were allowed to proceed for 120 minutes. Reactions were immediately quenched by the addition of 20 uL of 1× quench buffer (15 mM EDTA, 25 mM Hepes 7.3, and 0.1% Triton X-100) containing detection reagents (0.626 nM of LANCE-Eu-W1024-anti-phosphoTyrosine antibody, PerkinElmer and 86.8 nM of Streptavidin-conjugated Dylight 650, Dyomics/ThermoFisher Scientific). After 60 minutes incubation with detection reagents, reaction plates were read on a PerkinElmer EnVision plate reader using standard TR-FRET protocol. Briefly, excitation of donor molecules (Eu-chelate:anti-phospho-antibody) with a laser light source at 337 nm produces energy that can be transferred to Dylight-650 acceptor molecules if this donor:acceptor pair is within close proximity. Fluorescence intensity at both 665 nm (acceptor) and 615 nm (donor) are measured and a TR-FRET ratio calculated for each well (acceptor intensity/donor intensity). IC50 values were determined by 4 parameter robust fit of TR-FRET ratio values vs. (Log10) compound concentrations.

Chain of BTK enzyme (recombinant full-length BTK, hBTK) (Q06187 whole entry): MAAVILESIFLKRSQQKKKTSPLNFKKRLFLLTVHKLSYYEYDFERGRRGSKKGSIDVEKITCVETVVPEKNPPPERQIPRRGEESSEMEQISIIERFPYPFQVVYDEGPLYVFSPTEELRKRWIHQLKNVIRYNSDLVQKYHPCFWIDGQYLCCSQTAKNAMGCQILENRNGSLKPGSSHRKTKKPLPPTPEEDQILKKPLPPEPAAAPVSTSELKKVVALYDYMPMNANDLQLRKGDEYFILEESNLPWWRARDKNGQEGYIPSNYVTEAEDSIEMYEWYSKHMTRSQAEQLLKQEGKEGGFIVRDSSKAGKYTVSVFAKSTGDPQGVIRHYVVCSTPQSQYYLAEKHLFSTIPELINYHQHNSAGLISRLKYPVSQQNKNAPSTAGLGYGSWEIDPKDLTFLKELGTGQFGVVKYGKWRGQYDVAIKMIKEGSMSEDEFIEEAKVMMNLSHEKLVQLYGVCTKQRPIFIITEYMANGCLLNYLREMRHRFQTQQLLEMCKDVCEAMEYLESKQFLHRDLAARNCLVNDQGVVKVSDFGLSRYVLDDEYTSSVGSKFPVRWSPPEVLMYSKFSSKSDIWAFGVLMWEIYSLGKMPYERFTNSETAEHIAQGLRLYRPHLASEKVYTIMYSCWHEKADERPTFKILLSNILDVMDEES

Row | Structure (SMILES) | IC50
1 | CCOc1cc(C(C)(O)c2cccc(C)c2)ccc1-c1nc(C23CCC(C(=O)O)(CC2)CC3)n2ccnc(N)c12 (centres unmarked) [Example 20, 4-(8-amino-1-{2-ethoxy-4-[1-hydroxy-1-(3-methylphenyl)ethyl]phenyl}imidazo[1,5-a]pyrazin-3-yl)bicyclo[2.2.2]octane-1-carboxylic acid] | 136 nM
2 | CC(C)[C@H]1CC[C@@H](c2nc(-c3ccc([C@@](C)(O)c4cccc(C(F)(F)F)c4)cc3)c3c(N)nccn23)C[C@H]1C(=O)O [Example 21, (1R,2R,5R)-5-[8-amino-1-(4-{(1R)-1-hydroxy-1-[3-(trifluoromethyl)phenyl]ethyl}phenyl)imidazo[1,5-a]pyrazin-3-yl]-2-(1-methylethyl)cyclohexanecarboxylic acid] | 56.1 nM
3 | CC(C)[C@@H]1CC[C@H](c2nc(-c3ccc([C@@](C)(O)c4cccc(C(F)(F)F)c4)cc3)c3c(N)nccn23)C[C@@H]1C(=O)O [Example 23, (1S,2S,5S)-5-[8-amino-1-(4-{(1R)-1-hydroxy-1-[3-(trifluoromethyl)phenyl]ethyl}phenyl)imidazo[1,5-a]pyrazin-3-yl]-2-(1-methylethyl)cyclohexanecarboxylic acid] | 28.7 nM
4 | C[C@@](O)(c1ccc(-c2nc([C@H]3C[C@H]4CC[C@@H](C3)[C@H]4C(=O)O)n3ccnc(N)c23)cc1)c1cccc(C(F)(F)F)c1 [Example 25, (3-endo,8-syn)-3-[8-amino-1-(4-{(1R)-1-hydroxy-1-[3-(trifluoromethyl)phenyl]ethyl}phenyl)imidazo[1,5-a]pyrazin-3-yl]bicyclo[3.2.1]octane-8-carboxylic acid] | 39.9 nM
5 | C[C@@](O)(c1ccc(-c2nc([C@@H]3C[C@H]4CC[C@@H](C3)[C@H]4C(=O)O)n3ccnc(N)c23)cc1)c1cccc(C(F)(F)F)c1 [Example 26, (3-exo,8-syn)-3-[8-amino-1-(4-{(1R)-1-hydroxy-1-[3-(trifluoromethyl)phenyl]ethyl}phenyl)imidazo[1,5-a]pyrazin-3-yl]bicyclo[3.2.1]octane-8-carboxylic acid] | 33.5 nM
6 | CC(C)[C@@]1(C(=O)O)CC[C@H](c2nc(-c3ccc([C@@](C)(O)c4cccc(C(F)F)c4)cc3)c3c(N)ncc(Cl)n23)C1 [Example 30, (1R,3S)-3-[8-amino-5-chloro-1-(4-{(1R)-1-[3-(difluoromethyl)phenyl]-1-hydroxyethyl}phenyl)imidazo[1,5-a]pyrazin-3-yl]-1-(1-methylethyl)cyclopentanecarboxylic acid] | 32.3 nM
7 | CC(C)[C@]1(C(=O)O)CC[C@H](c2nc(-c3ccc([C@@](C)(O)c4cccc(C(F)F)c4)cc3)c3c(N)ncc(Cl)n23)C1 [Example 31, (1S,3S)-3-[8-amino-5-chloro-1-(4-{(1R)-1-[3-(difluoromethyl)phenyl]-1-hydroxyethyl}phenyl)imidazo[1,5-a]pyrazin-3-yl]-1-(1-methylethyl)cyclopentanecarboxylic acid] | 133 nM
8 | CC(C)[C@@]1(C(=O)O)CC[C@@H](c2nc(-c3ccc([C@@](C)(O)c4cccc(C(F)F)c4)cc3)c3c(N)ncc(Cl)n23)C1 [Example 32, (1R,3R)-3-[8-amino-5-chloro-1-(4-{(1R)-1-[3-(difluoromethyl)phenyl]-1-hydroxyethyl}phenyl)imidazo[1,5-a]pyrazin-3-yl]-1-(1-methylethyl)cyclopentanecarboxylic acid] | 41.8 nM
9 | CC1(C(=O)O)CCC(C)(c2nc(-c3ccc([C@@](C)(O)c4cccc(C(F)F)c4)cc3)c3c(N)nccn23)CC1 (stereo partly drawn) [Example 33, 4-[8-amino-1-(4-{(1R)-1-[3-(difluoromethyl)phenyl]-1-hydroxyethyl}phenyl)imidazo[1,5-a]pyrazin-3-yl]-1,4-dimethylcyclohexanecarboxylic acid] | 11.4 nM
10 | C[C@@](O)(c1ccc(-c2nc([C@@H]3C[C@@H]4[C@H](C3)[C@@H]4C(=O)O)n3ccnc(N)c23)cc1)c1cccc(C(F)(F)F)c1 [Example 35, (1R,3r,5S,6s)-3-[8-amino-1-(4-{(1R)-1-hydroxy-1-[3-(trifluoromethyl)phenyl]ethyl}phenyl)imidazo[1,5-a]pyrazin-3-yl]bicyclo[3.1.0]hexane-6-carboxylic acid] | 15.7 nM

Now those with a lower IC50, led by results:

Row | IC50 | Structure (SMILES)
11 | 6.3 nM | CC1(C)[C@H](c2nc(-c3ccc([C@@](C)(O)c4cccc(C(F)(F)F)c4)cc3)c3c(N)ncc(F)n23)CC[C@]1(C)C(=O)O [Example 24, (1S,3R)-3-[8-amino-5-fluoro-1-(4-{(1R)-1-hydroxy-1-[3-(trifluoromethyl)phenyl]ethyl}phenyl)imidazo[1,5-a]pyrazin-3-yl]-1,2,2-trimethylcyclopentanecarboxylic acid]
12 | 6.2 nM | C[C@@](O)(c1ccc(-c2nc(C34CCC(C(=O)O)(CC3)C3CC34)n3ccnc(N)c23)cc1)c1cccc(C(F)(F)F)c1 (stereo partly drawn) [Example 22, 5-[8-amino-1-(4-{(1R)-1-hydroxy-1-[3-(trifluoromethyl)phenyl]ethyl}phenyl)imidazo[1,5-a]pyrazin-3-yl]tricyclo[3.2.2.0~2,4~]nonane-1-carboxylic acid]
13 | 2.8 nM | CC(C)[C@]1(C(=O)O)CC[C@@H](c2nc(-c3ccc([C@@](C)(O)c4cccc(C(F)F)c4)cc3)c3c(N)ncc(Cl)n23)C1 [Example 29, (1S,3R)-3-[8-amino-5-chloro-1-(4-{(1R)-1-[3-(difluoromethyl)phenyl]-1-hydroxyethyl}phenyl)imidazo[1,5-a]pyrazin-3-yl]-1-(1-methylethyl)cyclopentanecarboxylic acid]
14 | 2.4 nM | CC1(C)[C@H](c2nc(-c3ccc([C@@](C)(O)c4cccc(C(F)F)c4)cc3)c3c(N)ncc(F)n23)CC[C@]1(C)C(=O)O [Example 34, (1S,3R)-3-[8-amino-1-(4-{(1R)-1-[3-(difluoromethyl)phenyl]-1-hydroxyethyl}phenyl)-5-fluoroimidazo[1,5-a]pyrazin-3-yl]-1,2,2-trimethylcyclopentanecarboxylic acid]
15 | 1.2 nM | CCOc1cc([C@@](C)(O)c2cccc(C(F)(F)F)c2)ccc1-c1nc([C@@H]2CC[C@](C)(C(=O)O)C2(C)C)n2ccnc(N)c12 [Example 28, (1S,3R)-3-[8-amino-1-(2-ethoxy-4-{(1S)-1-hydroxy-1-[3-(trifluoromethyl)phenyl]ethyl}phenyl)imidazo[1,5-a]pyrazin-3-yl]-1,2,2-trimethylcyclopentanecarboxylic acid]
16 | 1.1 nM | C[C@@](O)(c1ccc(-c2nc([C@@H]3C[C@@H]4[C@H](C3)[C@H]4C(=O)O)n3ccnc(N)c23)cc1)c1cccc(C(F)(F)F)c1 [Example 36, (1R,3R,5S,6r)-3-[8-amino-1-(4-{(1R)-1-hydroxy-1-[3-(trifluoromethyl)phenyl]ethyl}phenyl)imidazo[1,5-a]pyrazin-3-yl]bicyclo[3.1.0]hexane-6-carboxylic acid]
17 | 0.78 nM | CC1(C)[C@H](c2nc(-c3ccc([C@@](C)(O)c4cccc(C(F)F)c4)cc3)c3c(N)nccn23)CC[C@]1(C)C(=O)O [Example 27, (1S,3R)-3-[8-amino-1-(4-{(1R)-1-[3-(difluoromethyl)phenyl]-1-hydroxyethyl}phenyl)imidazo[1,5-a]pyrazin-3-yl]-1,2,2-trimethylcyclopentanecarboxylic acid]
